Data from PMC7866984, “Molecular Structure, In Vitro Anticancer Study and Molecular Docking of New Phosphate Derivatives of Betulin” (Molecules, 2021).
Like-named read-outs stand apart in the source and are kept apart here.

Key:
[1] = system: amelanotic melanoma (C-32) cells; experiment: WST-1 cell viability assay, C-32; type: cell-based, human; settings: WST-1, 72 h, read-out: IC50 ± SD, C-32
Protocol: (§1) Evaluation of the effect of new betulin derivatives on the viability of the cultured cells was performed using the WST-1(water soluble tetrazolium salt) assay. Betulin 1 and cisplatin were used as the reference compounds.
(§2) The synthesized compounds and references were tested for cytotoxic activity in vitro against human cancer cell lines such as amelanotic melanoma (C-32, ATCC, Rockville, MD, USA), glioblastoma (SNB-19, DSMZ, Braunschweig, Germany), and breast cancer (T47D, and MDA-MB-231, ATCC, Rockville, MD, USA). Cell cultures were maintained using DMEM (Lonza, Basel, Switzerland) supplemented with 10% fetal bovine serum (FBS) (Biological Industries Cromwell, CT, USA) and penicillin (10,000 U/mL) –streptomycin (10 mg/mL) mix (Lonza, Basel, Switzerland).
(§3) Cultures were performed in 96-well plates (Nunc Thermo Fisher Scientific, Waltham, MA, USA). Cells were seeded at 5 × 10^4/well and incubated for 24 h (at 37 °C, 5% CO2, constant humidity). Then, the medium was replaced with a fresh one with the addition of test compounds in the concentration: 25; 12.5; 6.25; 3.12; 1.56; 0.78; 0.39; 0 µg/mL and incubated again for a further 72 h. After this time, the WST-1 test (Roche Molecular Biochemicals, Mannheim, Germany) was performed to assess the metabolic activity of the cells. The principle of the WST-1 colorimetric test is based on the ability of live cells to decompose bright red tetrazole salts of WST-1 to dark red formazan. The reaction is mediated by mitochondrial dehydrogenases and correlates with the number of cells and their metabolic activity. The absorbance was measured at λ = 450 nm with a UVM340 microplate reader (Biogenet, Józefów, Poland). Results were expressed as a mean value of at least three independent experiments performed in triplicate.

[2] = system: glioblastoma (SNB-19) cells; experiment: WST-1 cell viability assay, SNB-19; type: cell-based, human; settings: WST-1, 72 h, read-out: IC50 ± SD, SNB-19
Protocol: as §1, §2, §3

breast cancer T47D cells [3] = experiment: WST-1 cell viability assay, T47D; type: cell-based, human; settings: Homo sapiens, T47D, 72 h, read-out: IC50 ± SD, T47D
Protocol: as §1, §2, §3

[4] = system: breast cancer MDA-MB-231 cells; experiment: WST-1 cell viability assay, MDA-MB-231; type: cell-based, human; settings: Homo sapiens, MDA-MB-231, 72 h, read-out: IC50 ± SD, MDA-MB-231
Protocol: as §1, §2, §3

[5] = system: histone H3 mRNA in SNB-19 and C-32 cells; experiment: qRT-PCR expression of H3; type: cell-based, human; settings: 24 h, half of IC50
Protocol: (§4) In our work, we assessed the influence of the tested compounds on the expression of selected genes related to apoptosis. […] We examined their influence on the transcriptional activity of genes encoding a proliferation marker (histone H3), a cell cycle regulator (p53), and proteins related to the mitochondrial apoptosis pathway (BCL-2 and BAX). The study was performed after 24-h exposure of the cultured cells to the test compounds (half of IC50).
(§5) The influence of tested compounds on the transcriptional activity of cells of the genes H3, TP53, BCL-2, and BAX was investigated. Assays were performed by real-time qRT-PCR on an Opticon TM DNA Engine (MJ Research, USA) using the QuantTect® SYBR® Green qRT-PCR Kit (Qiagen, Valencia, […]). Cells were exposed to compound 7a and 7b for 24 h at a concentration equal to half of IC50 for appropriate cell line. For the reference compound, cisplatin, concentrations were 0.8 µg/mL (SNB-19 line) and 0.6 µg/mL (C-32 line). RNA extraction was performed on spin columns using the Quick RNATM MiniPrep kit (Zymo Research, Irvine, CA, USA). RNA extracts were assessed qualitatively and quantitatively. Total RNA integrity was checked electrophoretically on a 1.2% agarose gel with ethidium bromide. The amount and purity of total RNA in the extracts were determined spectrophotometrically with the HP8452A spectrophotometer (Hewlett Packard, Waldbronn, Germany).

[6] = system: TP53 mRNA in SNB-19 and C-32 cells; experiment: qRT-PCR expression of TP53; type: cell-based, human; settings: 24 h, half of IC50
Protocol: as §4, §5

[7] = system: BAX/BCL-2 mRNA in SNB-19 and C-32 cells; experiment: qRT-PCR BAX/BCL-2 ratio; type: cell-based, human; settings: 24 h, half of IC50
Protocol: as §4, §5

[8] = RP-TLC experimental lipophilicity; type: physicochemical; settings: for RM0 / logPTLC: RP-TLC; for RM0: acetone/Tris buffer pH 7.4, extrapolated to zero acetone; for logPTLC: from RM0 by calibration equation; for -b: slope of regression plot RM = RM0 + bC
Description: Lipophilicity is an important physicochemical parameter related to the biological activity of compounds. This descriptor, contained in Lipiński’s rule of five, concerns the transport of a compound through the biological membrane system and the formation of a compound–receptor complex. To assess the lipophilic nature of triterpenoids 3–5, 6a–6e, and 7a–7e, the reverse phase chromatography (RP-TLC) method was used (chromatographic procedure by RP-TLC is included in the Supplementary Materials). The theoretical characteristics of the chromatographic parameters (RM0, log PTLC) of the tested derivatives were also performed. […]
Chromatographic procedure by RP-TLC
The experimental lipophilicity parameters was determined using reversed-phase thin-layer chromatography (RP-TLC). The stationary phase was an aluminium backed silica gel RP-18 F254 S plates (Merck, Darmstadt, Germany). Chloroform solutions of reference compounds […]
(acetanilide, 4-bromoacetophenone, benzophenone, anthracene, DDT) and triterpenes 3-5, 6a-6e and 7a-7e were spotted on to the plates in the amount of 2 µL. The chromatograms were performed in triplicate for each compound. The chromatographic chambers were filled of mobile phases consisting of a mixture of acetone (POCh, Gliwice, Poland) and aqueous solution of buffer Tris [(tris-hydroxymethyl)aminomethane] (Fluka, Loughborough, 0.2 M, pH 7.4). The percent acetone volume was varied within the range of 90-60%, in 5% increments. The spots of compounds were visualized by spraying the plates with 10% ethanolic solution of sulphuric acid (VI) and heating for 3 min at 110°C [60]]. The RM values were calculated by the equation RM = log (1/Rf-1) on the basis of average Rf values. The RM0 parameters were obtained by extrapolating on the acetone content to zero, according to the equation RM = RM0 + bC (C – the percentage concentration of acetone in the mobile phase, b – the slope of the regression plot).
The experimental lipophilicity as log PTLC for triterpenes 3-5, 6a-6e and 7a-7e was calculated […]
obtained on the correlation between the literature log Plit values and the experimental RM0 values […]
Table S5. The theoretical values of lipophilicity for tested compounds 3-5, 6a-6e and 7a- […]
Table S6. The correlation matrix for theoretically obtained lipophilicity parameters of compounds 3-5, 6a-6e and 7a-7e. […]

[9] = system: amelanotic melanoma (C-32) cells; settings: cited from earlier work
[10] = system: glioblastoma (SNB-19) cells; settings: cited from earlier work
breast cancer T47D cells [11] = settings: cited from earlier work

SMILES | IC50 ([1]; Homo sapiens, C32, 72 h) | IC50 ([2]; Homo sapiens, SNB-19, 72 h) | IC50 (breast cancer T47D cells [3]) | IC50 [4] | number of mRNA copies of histone H3 gene vs control [5] | number of mRNA copies of TP53 [6] | mRNA copy number BAX to BCL-2 ratio [7] | RM0 [8] | logPTLC [8] | -b [8] | melting point | IC50 [1] | IC50 [2] | IC50 [9] | IC50 [10] | IC50 (breast cancer T47D cells [11])
C#CC(=O)OC[C@]12CC[C@@H](C(=C)COP(=O)(OCC)OCC)C1C1CCC3[C@@]4(C)CC[C@H](O)C(C)(C)C4CC[C@@]3(C)[C@]1(C)CC2 (some centres unmarked) [Compound 7a, 30-Diethoxyphosphoryloxy-28-propynoylbetulin] | 2.15 ± 0.22 µM | 0.91 ± 0.09 µM | 2.61 ± 0.42 µM | 6.2 ± 0.22 µM | reduced the number of mRNA copies of the histone H3 gene | increase the number of mRNA copies of TP53 | increased the mRNA copy number to BAX and BCL-2 ratio | 5.318 | 6.937 | 0.062 | 177 to 180 °C | – | – | – | – | –
C=C(COP(=O)(OCC)OCC)[C@@H]1CC[C@]2(COC(=O)C#CC)CC[C@]3(C)C(CCC4[C@@]5(C)CC[C@H](O)C(C)(C)C5CC[C@]43C)C12 (some centres unmarked) [Compound 7b, 28-(2-Butynoyl)-30-diethoxyphosphoryloxybetulin] | 0.76 µM | 0.8 µM | 15.4 ± 0.51 µM | 4.93 ± 0.44 µM | reduced the number of mRNA copies of the histone H3 gene | increase the number of mRNA copies of TP53 | increased the mRNA copy number to BAX and BCL-2 ratio | 5.431 | – | 0.063 | 133 to 136 °C | 0.8 ± 0.03 µM | 0.76 ± 0.14 µM | – | – | –
C#CC(=O)OC[C@]12CC[C@@H](C(=C)C)[C@@H]1[C@H]1CC[C@@H]3[C@@]4(C)CC[C@H](O)C(C)(C)[C@@H]4CC[C@@]3(C)[C@]1(C)CC2 [28-O-propynoylbetulin] | – | – | – | – | – | – | – | – | – | – | – | – | – | 16.7 µM | 4.2 µM | 111 µM
C=C(COP(=O)(OCC)OCC)[C@@H]1CC[C@]2(COC(=O)C#CC3CC3)CC[C@]3(C)C(CCC4[C@@]5(C)CC[C@H](O)C(C)(C)C5CC[C@]43C)C12 (some centres unmarked) [Compound 7c, 28-(2-Cyclopropylpropynoyl)-30-diethoxyphosphoryloxybetulin] | 11.9 ± 0.52 µM | 6.29 ± 0.12 µM | > 50 µM | 9.11 ± 0.39 µM | – | – | – | 5.587 | 7.277 | 0.064 | 133 to 134 °C | – | – | – | – | –
C=C(COP(=O)(OCC)OCC)[C@@H]1CC[C@]2(COC(=O)C#Cc3ccccc3)CC[C@]3(C)C(CCC4[C@@]5(C)CC[C@H](O)C(C)(C)C5CC[C@]43C)C12 (some centres unmarked) [Compound 7d, 30-Diethoxyphosphoryloxy-28-(2-phenylpropynoyl)betulin] | 6.9 ± 0.4 µM | 4.38 ± 0.04 µM | 9.47 ± 0.03 µM | > 50 µM | – | – | – | 6.145 | 7.982 | 0.070 | 131 to 134 °C | – | – | – | – | –
C=C(COP(=O)(OCC)OCC)[C@@H]1CC[C@]2(COC(=O)C#CC)CC[C@]3(C)C(CCC4[C@@]5(C)CC[C@H](OC(=O)C#CC)C(C)(C)C5CC[C@]43C)C12 (some centres unmarked) [Compound 6b, 3,28-Di(2-butynoyl)-30-diethoxyphosphoryloxybetulin] | > 50 µM | 4.65 ± 0.51 µM | > 50 µM | 21.2 ± 1.24 µM | – | – | – | 6.884 | 8.917 | 0.078 | 66 to 70 °C | – | – | – | – | –
